Reference: patent publication US11607422B2, “Uttroside B and derivatives thereof as therapeutics for hepatocellular carcinoma” (Rajiv Gandhi Centre for Biotechnology, an Autonomous …, priority 2016, dated 2023)

Key:
HepG2 xenograft tumors = assay: HepG2-xenograft model in NOD-SCID mice; assay type: in vivo
Procedure: Our next attempt was to validate the anticancer potential of Uttroside B against hepatic cancer, using an in vivo HepG2-xenograft model in NOD-SCID mice. The HepG2 cells suspended in matrigel were subcutaneously injected in the flank region of the mice. The study has been schematically represented in FIG. 6A. Uttroside B, dissolved in PBS, was administered after 15 days of tumor cell implantation when the tumor attained a size of 50-100 mm^3 approximately. Uttroside B (10 mg/kg bw) was injected intraperitoneally, thrice weekly for four weeks. […] The size of the tumor was measured using Vernier calipers every week and the corresponding tumor volume was calculated. […] However, upon sacrifice, very small tumors were observed beneath the skin of animals treated with Uttroside B too, though the size was drastically less compared to that of control animals [FIG. 6B-6C]. […] Although this study was in a mouse the skilled artisan knows that that dose may be converted to human equivalent dosage by simple math. For example the 10 mg/kg body weight for a mouse would convert to a 0.8 mg/kg body weight for a human and result in a range from 0.05 to 1.2 mg/kg body weight.
In vivoHepG2-Xenograft model: All animal studies were performed in accordance with the protocols approved by Institute Animal Ethical Committee IAEC No: 151(b)/RUBY/2012. An ectopic xenograft model in NOD-SCID (NOD.CB17-Prkdcscid/J) mice was used for evaluating the anti-cancer properties of Uttroside B. The animals required for this study were obtained from Animal Research Facility of Rajiv Gandhi Centre for Biotechnology and were fed with standard food pellets and autoclaved water ad libitum. Animal handling, tumor induction, drug treatment and tissue collection were performed in sterile conditions.
Evaluation of the anticancer activity of Uttroside B, isolated from S. nigrum in human liver cancer (HepG2)-xenograft model: xenografts models were established in NOD-SCID mice as described in literature.^10 Male NOD-SCID (NOD.CB17-Prkdc^scid/J) mice of age 6-8 weeks were used for the study. Tumors were induced by subcutaneous injection of HepG2 cells (7×10^6 cells in 100 μL matrigel) in the lower right or left flank of mice and were allowed to grow for a period of two weeks to attain a size of approximately 50-100 mm^3 as measured by Vernier calipers. The mice were then randomly grouped into control and treatment group of 9 animals each. The treatment groups were injected intraperitoneally with Uttroside B (10 mg/kg doses thrice weekly) for one month. Tumor volume was measured every seven days to evaluate tumor growth and drug response. The animals were sacrificed at the end of the study and tumor samples were collected for histopathological and immunohistochemical analysis.
Histopathology: The tissue cryo-sections were washed with PBS (5 min, 2 times) and distilled water for 5 min. Then the sections were stained with hematoxylin for 2 min. Excess stain was washed off and the slides were dipped in differentiation solution for 1-2 s. They were then kept in tap water for 10 min and 70% Isopropyl alcohol for 5 min respectively and were counter stained with eosin solution for 1 min. The sections were then transferred to 100% Isopropyl alcohol and kept for 2 min, cleared in xylene for 1 h and were mounted using DPX. Stained sections were observed using a light microscope and were photographed. The pathology of liver and tumor tissue sections were examined and verified by Dr. Sankar Sundaram, Professor of Pathology, Medical College, Thiruvananthapuram.
Immunohistochemistry of xenograft tissue sections: Immunohistochemical analysis of various proteins in the xenograft tumor tissue sections was performed using the detection kit, as per manufacturer's protocol Super Sensitive™ Polymer-HRP IHC Detection System (Biogenex, Calif., USA). Paraformaldehyde-fixed OCT-embedded tissue sections were kept in PBS for 15 min. […]

HepG2 cells = assay: Acridine orange staining for acidic vesicular organelles; assay type: cell-based, human; conditions: HepG2, cytotoxic concentration, 24 h
Procedure: The presence of acidic vesicles, which are characteristics of autophagosome can be analyzed using this method. Acridine orange stains the nucleus green and the acidic vesicular organellae (AVOs) as red.^32 To detect the presence of AVOs in HepG2 cells, 5×10^3 were seeded in 96 well plates, and treated with Uttroside B and incubated for 24 h. The cells were rinsed with 1× PBS twice. The treated cells were then stained with acridine orange, which was added at a final concentration of 1 μg/mL and incubated for 15 min and immediately photographed using a fluorescent microscope.
FIG. 18 is a representative image showing that Uttroside B induces acidic vacuole formation in HepG2 cells by Acridine orange staining. To further confirm the autophagic induction by Uttroside B in HepG2 cells, the cells were exposed to cytotoxic concentration of Uttroside B for a period of 24 h and stained with Acridine orange dye. AO orange stains nucleus green and acidic vesicular organelle, mainly autophagosome, bright red. It crosses into acidic compartments and becomes protonated. The protonated dye stacks and stacked acridine orange emits in the red range.

[1] = 10 mg/kg bw i.p. thrice weekly, four weeks

## C[C@H](CC[C@@]1(O)O[C@H]2C[C@H]3[C@@H]4CC[C@H]5C[C@@H](O[C@@H]6O[C@H](CO)[C@H](O[C@@H]7O[C@H](CO)[C@@H](O)[C@H](O[C@@H]8OC[C@@H](O)[C@H](O)[C@H]8O)[C@H]7O[C@@H]7O[C@H](CO)[C@@H](O)[C@H](O)[C@H]7O)[C@H](O)[C@H]6O)CC[C@]5(C)[C@H]4CC[C@]3(C)[C@H]2[C@@H]1C)CO[C@@H]1O[C@H](CO)[C@@H](O)[C@H](O)[C@H]1O [Uttroside B]
HepG2 xenograft tumors; [1]
  cleaved PARP expression in tumor sections (IHC): Significant upregulation in the expression of cleaved PARP
  externally visible tumor at end of treatment: no tumor was visible externally
  histopathology (H&E) of tumor mass: massive destruction of cells
  tumor volume vs control: significantly low
HepG2 xenograft tumors; HepG2 xenograft tumor sections
  tissue level expression of LC3 (IHC): very high
  tissue level expression of beclin-1 (IHC): very high
HepG2 xenograft tumors; immunohistochemical staining, NOD-SCID mice
  phosphorylation status of p70S6K and 4E-BP-1 in xenograft tumor tissue: significant down-regulation in the phosphorylation status
HepG2 cells
  acidic vacuole formation (Acridine orange): AO positivity, a preliminary indication of increased autophagosomes was clearly visible
